Experimental data published in PubChem BioAssay AID1963835 (Molecular Pharmacology Branch, DTP, NCI, 2024).

Tested on: 699152-130-R-J1-PDC complex spheroid viability
Test: Anticancer human tumor 699152-130-R-J1-PDC patient-derived pancreatic carcinoma cell line growth inhibition [POLQ]
Conditions: for IC50: curve of first compound; for viability, T/C: stronger effect = lower value
Summary of the method: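 Three-cell-type spheroids modelling solid tumor plus stroma served as the readout system; POL inhibitors were tested individually and in combination, concentration ranges set by clinical Cmax where known.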

[1] = second compound 0.0316 µM, first compound 0.0316 µM
[2] = second compound 0.0316 µM, first compound 0.1 µM
[3] = second compound 0.0316 µM, first compound 0.316 µM
[4] = second compound 0.0316 µM, first compound 1 µM
[5] = second compound 0.0316 µM, first compound 3.16 µM
[6] = second compound 0.0316 µM, first compound 10 µM
[7] = second compound 0.1 µM, first compound 0.0316 µM
[8] = second compound 0.1 µM, first compound 0.1 µM
[9] = second compound 0.1 µM, first compound 0.316 µM
[10] = second compound 0.1 µM, first compound 1 µM
[11] = second compound 0.1 µM, first compound 3.16 µM
[12] = second compound 0.1 µM, first compound 10 µM
[13] = second compound 0.316 µM, first compound 0.0316 µM
[14] = second compound 0.316 µM, first compound 0.1 µM
[15] = second compound 0.316 µM, first compound 0.316 µM
[16] = second compound 0.316 µM, first compound 1 µM
[17] = second compound 0.316 µM, first compound 3.16 µM
[18] = second compound 0.316 µM, first compound 10 µM
[19] = second compound 1 µM, first compound 0.0316 µM
[20] = second compound 1 µM, first compound 0.1 µM
[21] = second compound 1 µM, first compound 0.316 µM
[22] = second compound 1 µM, first compound 1 µM
[23] = second compound 1 µM, first compound 3.16 µM
[24] = second compound 1 µM, first compound 10 µM
[25] = second compound 3.16 µM, first compound 0.0316 µM
[26] = second compound 3.16 µM, first compound 0.1 µM
[27] = second compound 3.16 µM, first compound 0.316 µM
[28] = second compound 3.16 µM, first compound 1 µM
[29] = second compound 3.16 µM, first compound 3.16 µM
[30] = second compound 3.16 µM, first compound 10 µM
[31] = second compound 10 µM, first compound 0.0316 µM
[32] = second compound 10 µM, first compound 0.1 µM
[33] = second compound 10 µM, first compound 0.316 µM
[34] = second compound 10 µM, first compound 1 µM
[35] = second compound 10 µM, first compound 3.16 µM
[36] = second compound 10 µM, first compound 10 µM
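Note: spheroids exposed to agents for 7 days before viability reading.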
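Throughout, for viability, T/C: percent of DMSO vehicle control viability so 100% = vehicle and 0% = no viable signal.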

CCc1cc2c(N3CCc4c(cc(Cn5ccnc5)cc4-c4cn(C)nc4C(F)(F)F)C3=O)cc(C)nc2c(OC)n1 + COC1C(OC(N)=O)C(O)C(Oc2ccc3c(O)c(NC(=O)c4ccc(O)c(CC=C(C)C)c4)c(=O)oc3c2C)OC1(C)C
IC50 (second compound 0.0316 µM): > 10000 nM | IC50 (second compound 0.1 µM): > 10000 nM | IC50 (second compound 0.316 µM): > 10000 nM | IC50 (second compound 1 µM): > 10000 nM | IC50 (second compound 3.16 µM): > 10000 nM | IC50 (second compound 10 µM): > 10000 nM | viability, T/C [1]: 91% | viability, T/C [2]: 91.9% | viability, T/C [3]: 89.5% | viability, T/C [4]: 93.2% | viability, T/C [5]: 101% | viability, T/C [6]: 100% | viability, T/C [7]: 93.9% | viability, T/C [8]: 91.4% | viability, T/C [9]: 91.7% | viability, T/C [10]: 101% | viability, T/C [11]: 96.9% | viability, T/C [12]: 99.5% | viability, T/C [13]: 94.5% | viability, T/C [14]: 91.4% | viability, T/C [15]: 89.8% | viability, T/C [16]: 96.1% | viability, T/C [17]: 99% | viability, T/C [18]: 106% | viability, T/C [19]: 98.8% | viability, T/C [20]: 83.5% | viability, T/C [21]: 97.2% | viability, T/C [22]: 96% | viability, T/C [23]: 94.2% | viability, T/C [24]: 99.8% | viability, T/C [25]: 92.4% | viability, T/C [26]: 86.8% | viability, T/C [27]: 84.2% | viability, T/C [28]: 98.5% | viability, T/C [29]: 95% | viability, T/C [30]: 102% | viability, T/C [31]: 93.2% | viability, T/C [32]: 102% | viability, T/C [33]: 88.5% | viability, T/C [34]: 100% | viability, T/C [35]: 105% | viability, T/C [36]: 106%

COc1cccc2c1C(=O)c1c(O)c3c(c(O)c1C2=O)CC(O)(C(=O)CO)CC3OC1CC(N)C(O)C(C)O1 (centres undefined) + COC1C(OC(N)=O)C(O)C(Oc2ccc3c(O)c(NC(=O)c4ccc(O)c(CC=C(C)C)c4)c(=O)oc3c2C)OC1(C)C
IC50 (second compound 0.0316 µM): 284 nM | IC50 (second compound 0.1 µM): 235 nM | IC50 (second compound 0.316 µM): 244 nM | IC50 (second compound 1 µM): 225 nM | IC50 (second compound 3.16 µM): 300 nM | IC50 (second compound 10 µM): 304 nM | viability, T/C [1]: 82.1% | viability, T/C [2]: 92.9% | viability, T/C [3]: 43.7% | viability, T/C [4]: 24.3% | viability, T/C [5]: 3.71% | viability, T/C [6]: 9.4% | viability, T/C [7]: 79% | viability, T/C [8]: 86.8% | viability, T/C [9]: 38.5% | viability, T/C [10]: 27% | viability, T/C [11]: 3.59% | viability, T/C [12]: 13.3% | viability, T/C [13]: 66.8% | viability, T/C [14]: 97.2% | viability, T/C [15]: 40.7% | viability, T/C [16]: 26.1% | viability, T/C [17]: 2.4% | viability, T/C [18]: 10.4% | viability, T/C [19]: 69.7% | viability, T/C [20]: 96.7% | viability, T/C [21]: 35.9% | viability, T/C [22]: 27.5% | viability, T/C [23]: 2.69% | viability, T/C [24]: 12.1% | viability, T/C [25]: 73% | viability, T/C [26]: 88.1% | viability, T/C [27]: 41.5% | viability, T/C [28]: 28% | viability, T/C [29]: 3.59% | viability, T/C [30]: 10.6% | viability, T/C [31]: 76% | viability, T/C [32]: 95.2% | viability, T/C [33]: 48.8% | viability, T/C [34]: 21.6% | viability, T/C [35]: 6.39% | viability, T/C [36]: 13.2%
